Data set [1] can be described thus: Toxicity in C57BL/6J mouse implanted with mouse MC38 cells assessed as change in serum AST level at 5 to 20 mg/kg, ip qd for 13 days. The class given is organism-based. To be noted: in vivo, 312 h, dose 5-20 mg/kg, time 13 day.
A short description of data set [2]: Toxicity in C57BL/6J mouse implanted with mouse MC38 cells assessed as heart weight ratio at 40 to 160 mg/kg, IG qd for 7 days. The class given is organism-based. The settings on record: in vivo, po, 168 h, dose 40-160 mg/kg, time 7 day.
Data set [3] can be described thus: Toxicity in C57BL/6J mouse implanted with mouse MC38 cells assessed as change in excised body weight at 5 to 20 mg/kg, ip qd for 13 days. The settings on record: in vivo, 312 h, dose 5-20 mg/kg, time 13 day. The class given is organism-based.
Data set [4] is described as follows: Toxicity in C57BL/6J mouse implanted with mouse MC38 cells assessed as change in HCT count at 40 to 160 mg/kg, IG qd for 7 days. In kind it is organism-based. The settings on record: in vivo, po, 168 h, dose 40-160 mg/kg, time 7 day.
The test system of data set [5] is MC-38. Put plainly: Antitumor activity against mouse MC38 cells implanted in C57BL/6J mouse at 5 to 20 mg/kg, ip qd for 13 days relative to control. In kind it is functional. To be noted: dose 5-20 mg/kg, time 13 day.
A short description of data set [6]: Toxicity in C57BL/6J mouse implanted with mouse MC38 cells assessed as injury in kidney at 5 to 20 mg/kg, ip qd for 13 days by H and E staining based analysis. In kind it is organism-based. To be noted: in vivo, 312 h, dose 5-20 mg/kg, time 13 day.
Data set [7] can be described thus: Toxicity in C57BL/6J mouse implanted with mouse MC38 cells assessed as change in MCH count at 40 to 160 mg/kg, IG qd for 7 days. The class given is organism-based. The settings on record: in vivo, po, 168 h, dose 40-160 mg/kg, time 7 day.
A short description of data set [8]: Toxicity in C57BL/6J mouse implanted with mouse MC38 cells assessed as injury in spleen at 5 to 20 mg/kg, ip qd for 13 days by H and E staining based analysis. The class given is organism-based. To be noted: in vivo, 312 h, dose 5-20 mg/kg, time 13 day.
Data set [9] deals with MC-38. Put plainly: Antitumor activity against mouse MC38 cells implanted in C57BL/6J mouse assessed as tumor growth inhibition administered intragastrically once daily for 7 days. In kind it is functional, cell-based. To be noted: dose 40-160 mg/kg, route ig, time 7.0 day.

This passage reports Activity, TGI and inhibition results from ChEMBL document CHEMBL6109137, “Design, Synthesis, Evaluation, and SAR of 5-Phenylisoindoline Derivatives, a Potent Class of Small-Molecule Inhibitors Targeting the Programmed Cell Death-1/Programmed Cell Death-Ligand 1 (PD-1/PD-L1) Interaction” (J Med Chem, 2025).

With `C[C@H](N)C(=O)N1Cc2ccc(-c3cccc(-c4ccc5c(c4)OCCO5)c3Cl)cc2C1.Cl`, the Activity entry in data set [1], in [2], in data set [3], in [4], in data set [6] and in data set [7] was “Non-toxic” in each case. The Activity result in [8] is “Non-toxic”. The tumour growth inhibition (TGI) (usually the reduction of tumour growth relative to the control group) in [5] was determined as 52.8%. The inhibition result in [9] was “Dose-dependent-effect”.
